From ChEMBL document CHEMBL5579815, “Novel angiogenesis inhibitors with superoxide anion radical amplification effect: Surmounting the Achilles' heels of angiogenesis inhibitors and photosensitizers” (Eur J Med Chem, 2024)
Active and inactive are the calls of the source. The calls are words filed in the database; no cut-off is given here.

What was measured:
[1] = Induction of ROS generation in methanol solution assessed as reduction in DPBF absorption peak at 10 uM irradiated with 650 nm 10 mW/cm2 light for upto 9 mins by DPBF probe based UV-vis absorption spectra analysis; type: functional
[2] = Induction of ROS generation in methanol solution assessed as increase in superoxide anion radical level by measuring increase in DHR123 fluorescence intensity at 10 uM irradiated with 650 nm 10 mW/cm2 light for upto 15 mins by DHR123 probe based fluorescence spectra analysis; type: functional
[3] = Induction of ROS generation in methanol solution assessed as increase in singlet oxygen level by measuring reduction in ABDA absorption peak at 10 uM irradiated with 650 nm 10 mW/cm2 light for upto 9 mins by ABDA probe based UV-vis absorption spectra analysis; type: functional
[4] = tested on: SK-MEL-28; assay: (§1) Cytotoxicity against human SK-MEL-28 cells assessed as reduction in cell viability at 0.008 to 1 uM preincubated for 24 hrs under hypoxic condition followed by media removal and irradiated with 650 nm 10 mW/cm2 light for 15 mins under hypoxic condition prior to media replacement and measured after 24 hrs by MTT assay; type: functional, cell-based; settings: dose 0.008-1 µM
[5] = tested on: SK-MEL-28; assay: as §1, with “normoxic” for “hypoxic”; type: functional, cell-based; settings: dose 0.008-1 µM
[6] = tested on: SK-MEL-28; assay: Cytotoxicity against human SK-MEL-28 cells assessed as reduction in cell viability by MTT assay; type: functional, cell-based
[7] = tested on: SK-MEL-28; assay: as §1, with “viability” for “viability at 0.008 to 1 uM”, “normoxic” for “hypoxic”; type: functional, cell-based; settings: SK-MEL-28, light or radiation study
[8] = tested on: SK-MEL-28; assay: as §1, with “viability” for “viability at 0.008 to 1 uM”; type: functional, cell-based; settings: SK-MEL-28, light or radiation study

| Structure (SMILES) | Activity [1] | Activity [2] | Activity [3] | Activity [4] | Activity [5] | IC50 [6] | IC50 [7] | IC50 [8] |
| --- | --- | --- | --- | --- | --- | --- | --- | --- |
| CCN(CC)c1ccc2nc3c4ccccc4/c(=N\CCCCCCn4cc(CNC(=O)c5cc(Oc6ccc(NC(=O)Nc7ccc(Cl)c(C(F)(F)F)c7)cc6)ccn5)nn4)cc-3sc2c1 | Active | Active | inactive | Active | Active | – | – | – |
| CCN(CC)c1ccc2nc3c4ccccc4/c(=N\CCCCCC(=O)O)cc-3sc2c1 | Active | Active | inactive | – | – | – | – | – |
| CNC(=O)c1cc(Oc2ccc(NC(=O)Nc3ccc(Cl)c(C(F)(F)F)c3)cc2)ccn1 [SORAFENIB] | – | – | – | – | – | 9.49 µM | – | – |
| CCN(CC)c1ccc2nc3c4ccccc4/c(=N\CCCCCCn4cc(CCC(=O)Nc5cccc(-c6cn(Cc7ccc(-c8ccc(OC)nc8)cc7)nn6)c5)nn4)cc-3sc2c1 | Active | Active | inactive | – | – | – | – | – |
| CCN(CC)c1ccc2nc3c4ccccc4/c(=N\CCCCCCn4cc(CCCCNC(=O)c5cc(Oc6ccc(NC(=O)Nc7ccc(Cl)c(C(F)(F)F)c7)cc6)ccn5)nn4)cc-3sc2c1 | Active | Active | inactive | Active | Active | – | – | – |
| CCN(CC)c1ccc2nc3c4ccccc4/c(=N\CCCCCCN)cc-3sc2c1 | Active | Active | inactive | – | – | – | 14.2 µM | > 20 µM |
| CCN(CC)c1ccc2nc3c4ccccc4/c(=N\CCCCCC(=O)NCCCNC(=O)c4cc(Oc5ccc(NC(=O)Nc6ccc(Cl)c(C(F)(F)F)c6)cc5)ccn4)cc-3sc2c1 | Active | Active | inactive | Active | Active | – | – | – |
| CCN(CC)c1ccc2nc3c4ccccc4/c(=N\CCCCCCn4cc(CCNC(=O)c5cc(Oc6ccc(NC(=O)Nc7ccc(Cl)c(C(F)(F)F)c7)cc6)ccn5)nn4)cc-3sc2c1 | Active | Active | inactive | Active | Active | – | – | – |
| CCN(CC)c1ccc2nc3c4ccccc4/c(=N\CCCCCC(=O)Nc4cccc(-c5cn(Cc6ccc(-c7ccc(OC)nc7)cc6)nn5)c4)cc-3sc2c1 | Active | Active | inactive | – | – | – | – | – |
| CCN(CC)c1ccc2nc3c4ccccc4/c(=N\CCCCCC(=O)NCCNC(=O)c4cc(Oc5ccc(NC(=O)Nc6ccc(Cl)c(C(F)(F)F)c6)cc5)ccn4)cc-3sc2c1 | Active | Active | inactive | Active | Active | – | – | – |
| CCN(CC)c1ccc2nc3c4ccccc4/c(=N\CCCCCCNC(=O)CCC(=O)Nc4cccc(-c5cn(Cc6ccc(-c7ccc(OC)nc7)cc6)nn5)c4)cc-3sc2c1 | Active | Active | inactive | – | – | – | – | – |
| CCN(CC)c1ccc2nc3c4ccccc4/c(=N\CCCCCCn4cc(CCCC(=O)Nc5cccc(-c6cn(Cc7ccc(-c8ccc(OC)nc8)cc7)nn6)c5)nn4)cc-3sc2c1 | Active | Active | inactive | – | – | – | – | – |
| CCN(CC)c1ccc2nc3c4ccccc4/c(=N\CCCCCCNC(=O)CC(=O)Nc4cccc(-c5cn(Cc6ccc(-c7ccc(OC)nc7)cc6)nn5)c4)cc-3sc2c1 | Active | Active | inactive | – | – | – | – | – |
| CCN(CC)c1ccc2nc3c4ccccc4/c(=N\CCCCCCN=[N+]=[N-])cc-3sc2c1 | Active | Active | inactive | – | – | – | – | – |
